No end group written: not given here.
Tested on: LDL
Assay: Staining of peptide-bonded resin with biotinylated LDL in plasma (ABC method)
Type: binding
Design: key: the peptide-bonded resins which were stained are indicated with "+ (plus)"; the peptide-bonded resins which were not stained are indicated with "- (minus)"
Settings: Table 1, peptide-bonded TG resin, room temperature 1 hour, peroxidase-streptoavidin/3,3'-diaminobenzidine
Method: With respect to the adsorbent comprising the water-insoluble carrier having bonded thereto the peptide, as a method for evaluating the binding ability (affinity) of the adsorbent for an LDL, there can be mentioned a method in which, after causing an LDL to be adsorbed on the adsorbent, the adsorbent having the LDL adsorbed thereon is subjected to staining (avidin-biotin complex method, that is, ABC method). Specifically, a biotinylated LDL is added to plasma, and the adsorbent is immersed in the plasma for a predetermined period of time. Then, the adsorbent is taken out of the plasma, and washed. Subsequently, the adsorbent is immersed in a horseradish peroxidase-labeled streptoavidin solution, and a solution of 3,3'-diamino benzidine, which is a substrate for the above-mentioned enzyme (horseradish peroxidase), is added thereto, thereby staining the adsorbent. The binding ability of the adsorbent for LDL is evaluated from the degree of the staining. With respect to methods for evaluating a binding ability for LDL, reference can be made to, for example, the following literature: S. M. Hsu, L. Raine, H. Fanger, J. Histchem. Cytochem., 29, 577 (1981); and H. Towbin, T. Staehelin, J. Gordon, Proc. Natl. Acad. Sci. U.S.A., 76, 4350 (1979).
The ability of each of the peptides to bind thereto an LDL was evaluated as follows. To a blood sample obtained from a healthy person was added a 3.8% aqueous solution of sodium citrate to thereby obtain a mixture. The obtained mixture was centrifuged to separate the blood sample into a blood cells component and a plasma component.
On the other hand, each of the above-mentioned polystyrene resins having bonded thereto the above-synthesized peptides was individually taken out from the synthesis reaction system and packed in a column having a filter (manufactured and sold by Bio-Rad laboratories, U.S.A.). Subsequently, the plasma-LDL mixture prepared above was added to the column, and the column was allowed to stand at room temperature for 1 hour. Then, the column was washed with a physiological saline containing 0.1% Tween 20 and sodium phosphate. After the washing, 1 ml of a horseradish peroxidase-labeled streptoavidine (0.2 ug/ml) solution containing 10% Block Ace (manufacturedand sold by Dainippon Pharmaceutical Co., Ltd., Japan) was added to the column, and the column was allowed to stand at room temperature for 30 minutes. Then, 1 ml of a 3,3'-diaminobenzidine tetrahydrochloride ([…]) solution containing 0.005% hydrogen peroxide was added to the column (by the addition of this solution, when a peptide-bonded resin contained in the column has the LDL bonded thereto, the resin is stained to assume brown color).
Results are shown in Table 1, wherein the peptide-bonded resins which were stained are indicated with "+ (plus)" and the peptide-bonded resins which were not stained are indicated with "- (minus)".
The ability of each of the peptides to bind thereto an LDL was evaluated in substantially the same manner as in Example 1.

| Substance | Stain |
| --- | --- |
| Comparative Example 1 Sample 1: comparative pentapeptide N1-N5 = R A H I N, bonded to TG polystyrene resin (RAHIN; not fully specified; printed as Arg Ala His Ile Asn) [reference compound] | - |
| Comparative Example 1 Sample 2: comparative pentapeptide N1-N5 = P K S I N, bonded to TG polystyrene resin (PKSIN; not fully specified; printed as Pro Lys Ser Ile Asn) [reference compound] | - |
| Comparative Example 1 Sample 3: comparative pentapeptide N1-N5 = L H R H L, bonded to TG polystyrene resin (LHRHL; not fully specified; printed as Leu His Arg His Leu) [reference compound] | - |
| Comparative Example 1 Sample 4: comparative pentapeptide N1-N5 = L T M K M, bonded to TG polystyrene resin (LTMKM; not fully specified; printed as Leu Thr Met Lys Met) [reference compound] | - |
| Comparative Example 1 Sample 5: comparative pentapeptide N1-N5 = M L T V R, bonded to TG polystyrene resin (MLTVR; not fully specified; printed as Met Leu Thr Val Arg) [reference compound] | - |
| Example 1 Sample 1: pentapeptide N1-N5 = R F Y Y M, bonded to TG polystyrene resin (RFYYM; not fully specified; printed as Arg Phe Tyr Tyr Met) | + |
| Example 1 Sample 2: pentapeptide N1-N5 = F K I W W, bonded to TG polystyrene resin (FKIWW; not fully specified; printed as Phe Lys Ile Trp Trp) | + |
| Example 1 Sample 3: pentapeptide N1-N5 = W Q R H F, bonded to TG polystyrene resin (WQRHF; not fully specified; printed as Trp Gln Arg His Phe) | + |
| Example 1 Sample 4: pentapeptide N1-N5 = I F Y K W, bonded to TG polystyrene resin (IFYKW; not fully specified; printed as Ile Phe Tyr Lys Trp) | + |
| Example 1 Sample 5: pentapeptide N1-N5 = W A L Y R, bonded to TG polystyrene resin (WALYR; not fully specified; printed as Trp Ala Leu Tyr Arg) | + |

Same assay, conditions: Table 2, peptide-bonded TG resin, same manner as Example 1

| Substance | Stain |
| --- | --- |
| Comparative Example 2 Sample 1: comparative pentapeptide N1-N5 = T H R Q R, bonded to TG polystyrene resin (THRQR; not fully specified; printed as Thr His Arg Gln Arg) [reference compound] | - |
| Comparative Example 2 Sample 2: comparative pentapeptide N1-N5 = H Y Y L Q, bonded to TG polystyrene resin (HYYLQ; not fully specified; printed as His Tyr Tyr Leu Gln) [reference compound] | - |
| Comparative Example 2 Sample 3: comparative pentapeptide N1-N5 = W H V Q T, bonded to TG polystyrene resin (WHVQT; not fully specified; printed as Trp His Val Gln Thr) [reference compound] | - |
| Comparative Example 2 Sample 4: comparative pentapeptide N1-N5 = P N A F A, bonded to TG polystyrene resin (PNAFA; not fully specified; printed as Pro Asn Ala Phe Ala) [reference compound] | - |
| Comparative Example 2 Sample 5: comparative pentapeptide N1-N5 = H W V V H, bonded to TG polystyrene resin (HWVVH; not fully specified; printed as His Trp Val Val His) [reference compound] | - |
| Comparative Example 2 Sample 6: comparative pentapeptide N1-N5 = Y I Q V W, bonded to TG polystyrene resin (YIQVW; not fully specified; printed as Tyr Ile Gln Val Trp) [reference compound] | - |
| Comparative Example 2 Sample 7: comparative pentapeptide N1-N5 = F G A I V, bonded to TG polystyrene resin (FGAIV; not fully specified; printed as Phe Gly Ala Ile Val) [reference compound] | - |
| Comparative Example 2 Sample 8: comparative pentapeptide N1-N5 = H A S N P, bonded to TG polystyrene resin (HASNP; not fully specified; printed as His Ala Ser Asn Pro) [reference compound] | - |
| Comparative Example 2 Sample 9: comparative pentapeptide N1-N5 = E W S M T, bonded to TG polystyrene resin (EWSMT; not fully specified; printed as Glu Trp Ser Met Thr) [reference compound] | - |
| Comparative Example 2 Sample 10: comparative pentapeptide N1-N5 = F I I M E, bonded to TG polystyrene resin (FIIME; not fully specified; printed as Phe Ile Ile Met Glu) [reference compound] | - |
| Comparative Example 2 Sample 11: comparative pentapeptide N1-N5 = W V D H N, bonded to TG polystyrene resin (WVDHN; not fully specified; printed as Trp Val Asp His Asn) [reference compound] | - |
| Comparative Example 2 Sample 12: comparative pentapeptide N1-N5 = E A K H E, bonded to TG polystyrene resin (EAKHE; not fully specified; printed as Glu Ala Lys His Glu) [reference compound] | - |
| Comparative Example 2 Sample 13: comparative pentapeptide N1-N5 = F N F E S, bonded to TG polystyrene resin (FNFES; not fully specified; printed as Phe Asn Phe Glu Ser) [reference compound] | - |
| Comparative Example 2 Sample 14: comparative pentapeptide N1-N5 = V E E M E, bonded to TG polystyrene resin (VEEME; not fully specified) [reference compound] | - |
| Example 2 Sample 1: pentapeptide N1-N5 = W T A R R, bonded to TG polystyrene resin (WTARR; not fully specified; printed as Trp Thr Ala Arg Arg) | + |
| Example 2 Sample 2: pentapeptide N1-N5 = F A Y R R, bonded to TG polystyrene resin (FAYRR; not fully specified; printed as Phe Ala Tyr Arg Arg) | + |
| Example 2 Sample 3: pentapeptide N1-N5 = R W I L Q, bonded to TG polystyrene resin (RWILQ; not fully specified; printed as Arg Trp Ile Leu Gln) | + |
| Example 2 Sample 4: pentapeptide N1-N5 = R F W L F, bonded to TG polystyrene resin (RFWLF; not fully specified; printed as Arg Phe Trp Leu Phe) | + |
| Example 2 Sample 5: pentapeptide N1-N5 = R Y A F W, bonded to TG polystyrene resin (RYAFW; not fully specified; printed as Arg Tyr Ala Phe Trp) | + |
